This is an account of results in patent US7795305B2, “CDDO-compounds and combination therapies thereof” (Board of Regents, The University of Texas System, priority 2000, dated 2010).

For test [1], the system named is wt-PPARγ-transfected D9 cells. Briefly: Annexin V / cell number in wt-PPARγ-transfected D9 cells. In kind it is cell-based. The procedure: (§1) Annexin V staining. Cells were washed in phosphate-buffered saline (PBS) and resuspended in 100 μl of binding buffer containing Annexin V (Roche Diagnostic Corporation, Indianapolis, Ind.). Cells were analyzed by flow cytometry after the addition of propidium iodide (PI). Annexin V binds to those cells that express phosphatidylserine on the outer layer of the cell membrane, and PI stains the cellular DNA of those cells with a compromised cell membrane. This allows for live cells (unstained with either fluorochrome) to be discriminated from apoptotic cells (stained only with annexin V) and necrotic cells (stained with both annexin and PI).
(§2) To characterize the correlation between PPARγ and caspase activation, caspase-3 levels in D9 cells transfected with wt-PPARγ were analyzed. Six different single cell-derived clones were treated with 3 μM CDDO or vehicle controls for 5 hrs. Caspase-3 cleavage was analyzed by Western blot. A decrease in pro-caspase-3 with appearance of the cleaved product was readily observed in all clones. The degree of cleavage was higher in PPARγ-transfected than in vector control cells that express endogenous PPARγ. […] These changes correlated with plasma membrane changes: vector control=47.0% annexin V-positive cells; wt-PPARγ-transfected cells=73.3±1.1% annexin V (+), n=6. […] PPARγ-transfected cells were also more sensitive to PPARγ-ligand 15d-PGJ2 (41.00% vs 16.0% annexin (+) cells at 3 μM).
as §2, with “(41.0%” for “(41.00%”
The sensitivity of leukemic cells that overexpress PPARγ to CDDO-induced killing was tested. Vector control (pcDNA) or wt-PPARγ-transfected D9 cells (2 different clones) were treated 0.2 μM of CDDO for 48 hrs. Cell viability was assessed by cell count after Trypan blue exclusion, and apoptosis determined by PS/annexin V/Propidium Iodide (PI) flow cytometry. Leukemic cells transfected with PPARγ expressed 2.8-3.7-fold higher amounts of protein compared with vector controls. […] Importantly, CDDO increased PPARγ expression in both, vector control and transfected cells. […]

The test system of a further test is NB4 cells. Briefly: Annexin V staining. The class given is cell-based, human. The procedure: as §1
Mechanisms of CDDO-induced apoptosis in leukemia cell lines and in primary AML samples were also determined. The involvement of the death receptor/Fas pathway was studied in NB4 cells. Treatment with 0.5 μM CDDO induced cell surface Fas/CD95 expression at 48 hours (MFI 34.8 vs 24.8 in DMSO-treated cells and 26 in untreated control). At this concentration, 22.3% of cells were annexin V positive compared with 11.4% in DMSO-controls. At 1 μM, 56.3% of cells were apoptotic. Similarly, 1 μM CDDO induced Fas expression in 7/12 AML CD34+ cells (MFI, 22.3±3.5 in DMSO-controls, 40±4.3 in CDDO-treated CD34+ cells, p<0.01).

Test [2] concerns Bcl-2 mRNA in HL-60 cells. Briefly: Bcl-2 mRNA by quantitative TaqMan PCR. In kind it is cell-based, human. Conditions: 72 hours. The procedure:
(§3) The effect of CDDO on the Bcl-2 mRNA expression was analyzed utilizing quantitative TaqMan PCR. In HL-60 cells, Bcl-2 mRNA decreased at 24 hrs and decreased further (>than 10-fold) at 72 hours; in NB4 cells, a small decrease of Bcl-2 mRNA (2-fold) was observed only at 72 hrs (FIG. 9).
In general terms: Real-time PCR tracks product formation cycle by cycle.

A further test has as its system Bcl-2 mRNA in NB4 cells. Briefly: Bcl-2 mRNA by quantitative TaqMan PCR. Conditions: 72 hrs. The class given is cell-based, human. The procedure:
as §3

The target of the next test is PPARα receptor (Homo sapiens, UniProt Q07869). The test is described as follows: Transactivation of PPARα. In kind it is cell-based.
Another test deals with KG-1. The test is described as follows: Growth inhibition of leukemic cell line. In kind it is cell-based, human. From the text: (§4) Suspension culture of leukemic cells.
In a further test the test system is NB4. Briefly: Growth inhibition of leukemic cell line. The class given is cell-based, human.
Text: as §4

The next test deals with CML-blast crisis samples. The test is described as follows: Apoptosis and differentiation in CML-blast crisis samples in vitro. The class given is cell-based, human. An excerpt:
Subjects. Samples of bone marrow or peripheral blood were obtained for in vitro studies from patients with newly diagnosed or recurrent AML with high (>70%) blast count and from patients with myeloid transformation of chronic myeloid leukemia (CML). Informed consent was obtained following institutional guidelines. Mononuclear cells were separated by Ficoll-Hypaque (Sigma Chemical Co) density-gradient centrifugation.
CDDO-Me. In primary AML, CDDO-Me induced apoptotic cell death in a dose-dependent fashion as determined by DNA flow cytometry (subG1): at 1 μM CDDO-Me, apoptosis was induced in 5 of 6 AML samples in vitro, and 5 μM induced apoptosis in 6 of 6 samples. More than 90% apoptotic cells were detected in 4/6 samples following exposure to 5 μM of CDDO-Me (FIG. 21A). At lower concentrations, CDDO-Me induced a dose-dependent increase in the percentage of the apoptotic cells in 4/4 samples tested (FIG. 21B). The paired mean difference between the CDDO-Me 0.1 μM and DMSO control is 26.9%±10.8% (CDDO-Me-DMSO, mean±SEM); and the paired mean difference between the CDDO-Me 0.5 μM and DMSO is 43.2%±5.2%. […] Effects of CDDO-Me were also tested on clonogenic AML cells. […] In contrast, 79±5.6% and 63.4±1.1% CFU-GM generated from normal CD34* cells were detected after 0.1 and 0.5 μM of CDDO-Me treatment (n=3).

PPARα receptor, sequence (Q07869 whole entry): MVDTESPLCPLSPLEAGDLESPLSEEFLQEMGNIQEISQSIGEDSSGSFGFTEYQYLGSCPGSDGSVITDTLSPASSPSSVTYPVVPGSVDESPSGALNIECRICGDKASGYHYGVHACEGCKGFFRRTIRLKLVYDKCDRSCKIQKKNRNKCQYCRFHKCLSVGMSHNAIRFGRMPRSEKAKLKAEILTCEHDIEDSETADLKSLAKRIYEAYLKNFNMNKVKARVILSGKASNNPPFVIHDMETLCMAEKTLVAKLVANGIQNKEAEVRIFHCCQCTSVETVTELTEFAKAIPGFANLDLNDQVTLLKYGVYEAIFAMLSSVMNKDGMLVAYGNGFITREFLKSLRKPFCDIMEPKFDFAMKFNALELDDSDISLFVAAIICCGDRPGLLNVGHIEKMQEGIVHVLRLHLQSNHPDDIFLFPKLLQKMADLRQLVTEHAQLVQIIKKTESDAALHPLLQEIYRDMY

As for `CC1(C)CCC2(C(=O)O)CCC3(C)C(C(=O)C=C4C5(C)C=C(C#N)C(=O)C(C)(C)C5CCC43C)C2C1` (stereo not drawn) [CDDO, 2-cyano-3,12-dioxoolen-1,9-dien-28-oic acid], the “annexin V (+) cells” value in test [1] (3 μM (CDDO: 5 hrs, n=6)) came to 73.3±1.1%. Besides, the “cell number decreased by” value in test [1] (3 μM CDDO) amounted to 48.8±12.4%. Further, the “higher sensitivity compared to vector-control cells” value in test [1] (all six single cell-derived subclones, 0.2 μM CDDO, 48 hrs) is listed as more than 50%. In the test on NB4 cells (0.5 μM (11.4% in DMSO-controls)), the “annexin V positive cells” value is listed as 22.3%. This molecule also returned an apoptotic cells in the test with NB4 cells (1 μM) of 56.3%. The “decrease of Bcl-2 mRNA” value in test [2] is more than 10 fold; in the test on Bcl-2 mRNA in NB4 cells, 2 fold. The “transactivation of PPARα receptor” value on PPARα receptor was “did not transactivate”.

Regarding `COC(=O)[C@]12CCC(C)(C)C[C@H]1[C@H]1C(=O)C=C3[C@@]4(C)C=C(C#N)C(=O)C(C)(C)[C@@H]4CC[C@@]3(C)[C@]1(C)CC2` [CDDO-Me], the figures for the concentration for half-maximal inhibition (IC50) with KG-1 and with NB4 were 400 nM and 270 nM, respectively. The “CML-blast crisis samples in which apoptosis was induced” value with CML-blast crisis samples (1 μM) is on record as 3 of 4; in the test with CML-blast crisis samples (5 μM) it was 4 of 4.

What is called IC50 is the midpoint of a concentration-inhibition curve.
